Data published in US20230181553A1, “COMPOSITION FOR HAIR IMPROVEMENT” (Dr. Cherry Inc., priority 2020, published 2023).

How the values were obtained:
[1] = test system: scalp; assay: Change in hair thickness after application of pioglitazone suspension to half side of the scalp with electroporation; format: in vivo, human
Description: As pioglitazone, a 15 mg pioglitazone tablet “NP” was used. One pioglitazone tablet was ground in a mortar, and the resultant was suspended in 3 mL of water for injection PL “FUSO” for use. Subjects were three female patients (patients). In each of the patients, lines were extended from both outer canthi toward the head, two points on these lines crossing a line extended between the both ears through the vertex were tattooed with an India ink, and a portion around the marked center was photographed under the same conditions. A suspension of pioglitazone was applied to the entire of half side of the scalp. In order to increase penetration, pioglitazone was caused to penetrate through the skin with META-TDS, Electroporation Machine (CTP-802, Grand Aespio Inc., Korea) at an output of 3 V/6 mA {actually measured value}. This treatment was performed at a frequency of once every two weeks 12 times (namely, for 6 months). The test sites were away from the midline of the head by 51 mm on average on both left and right sides. After 6 months from the start of the treatment (after performing the treatment 12 times), Dermo Prime, dpharris (CHOWIS, Korea) was used to import data of two images of each test site into a computer as digital images, and in each image, three hairs having the largest thickness (6 hairs in two images of each test site) were selected to automatically measure the thickness. An average value of the tested values (hair thickness: mm) was used for graphing. Specifically, assuming that the thickness before the treatment was 100, the thickness after the treatment was indicated as a rate. Regarding a patient group in which the treatment was performed on a half side, a difference between before and after the treatment and a difference between the left and right-side portions were compared.

[2] = test system: CD163; assay: Gene expression in rat skin tissue after subcutaneous administration (qPCR); format: in vivo, Wistar Rat; conditions: rat back skin, 2.5, 0.1 or 0.02 µg/portion, tissue after 8 weeks, relative to no PG administration
Description: (§1) Next, change in gene expression in a tissue was checked. As a subject, 12 weeks old Wistar Rat (male) was used. Regarding a 2.5 µg/portion administration group, three regions were set on the back from the head to the tail, and each of these regions was divided into two regions on both left and right sides of the spine to set six regions on the back in total. In such an administration group, PG was administered to two portions around the center of each of the six regions. Specifically, in the 2.5 µg/portion administration group (n = 3), 2.5 µg (20 µL) of PG was administered per portion. Besides, regarding a 0.1 µg/portion administration group and a 0.02 µg/portion administration group, two regions were set from the head to the tail, and each of these regions was divided into two regions on both left and right sides of the spine, and thus, four regions in total were set on the back. In such an administration group, PG was administered to two portions around the center of each of the four regions. Specifically, in the 0.1 µg/portion administration group (n = 3), 0.1 µg (20 µL) of PG was administered per portion, and in the 0.02 µg/portion administration group (n = 2), 0.02 µg (20 µL) of PG was administered per portion. It is noted that a distance between the two portions was 1 cm. After 8 weeks, a tissue was collected with a 3 mm punch after shaving a portion on the center of the injected portion.
(§2) The collected tissue piece was frozen with liquid nitrogen, and stored at -80° C. […] For gene expression analysis by quantitative PCR, design and synthesis of a gene specific primer and a probe were entrusted to Integrated DNA Technologies, Inc. (Skokie, IL, USA), and an expression level of a target gene was analyzed with Prime Time Gene Expression Master Mix reagent (Integrated DNA Technologies, Inc., Skokie, IL, USA) and a Rotor-Gene Q PCR device (QIAGEN GmbH, Hilden, Germany). […]

[3] = test system: CD34; assay: as above; format: in vivo, Wistar Rat; conditions: rat back skin, 2.5, 0.1 or 0.02 µg/portion, tissue after 8 weeks, relative to no PG administration
Description: as §1, §2

[4] = test system: CD68; assay: as above; format: in vivo, Wistar Rat; conditions: rat back skin, 2.5, 0.1 or 0.02 µg/portion, tissue after 8 weeks, relative to no PG administration
Description: as §1, §2

[5] = test system: PPARγ; set-up: species or system Wistar Rat; conditions: rat, in vivo
Description: Next, change in gene expression in a tissue was checked. As a subject, 12 weeks old Wistar Rat (male) was used. Regarding a 2.5 µg/portion administration group, three regions were set on the back from the head to the tail, and each of these regions was divided into two regions on both left and right sides of the spine to set six regions on the back in total. In such an administration group, PG was administered to two portions around the center of each of the six regions. Specifically, in the 2.5 µg/portion administration group (n = 3), 2.5 µg (20 µL) of PG was administered per portion. Besides, regarding a 0.1 µg/portion administration group and a 0.02 µg/portion administration group, two regions were set from the head to the tail, and each of these regions was divided into two regions on both left and right sides of the spine, and thus, four regions in total were set on the back. […]

[6] = test system: hair thinning; assay: Scalp improvement effect in nine regions in androgenetic alopecia patients (rating of hair growth effect); format: in vivo, human; conditions: four AGA male patients, oral 5 mg once a day, 2 months
Source text: In this example, the scalp was divided into nine regions to observe the effect of the treatment therein. In this manner, even when each patient has both a good portion (portion having a large hair volume) and a poor portion (portion having a small hair volume), influence on the good portion and influence on the poor portion can be separately evaluated, and thus, it can be expected that highly accurate evaluation can be realized. Subjects were four androgenetic alopecia (AGA) male patients (of 42 to 63 years old) having aggravated as compared with a state 1 year ago. Two patients out of these patients had continuously taken Finasteride, an anti-androgen agent, respectively from 4 years ago and 7 years ago, and continuously took it after starting the following treatment. In this example, pioglitazone, that is a PPARγ agonist, was orally administered to these patients. […] A photograph of each patient taken from directly above 10 to 12 months before starting the treatment of this example, a photograph taken on the day of starting the treatment, and a photograph taken after 2 months from the start of the treatment were evaluated. […] A hair growth effect was evaluated by the 5 medical specialists in accordance with the following rating. […]

Which “hair thickness on treated side compared with negative control” value ([1]; 15 mg tablet suspended in 3 mL water, half side of scalp, once every two weeks 12 times, 1 month to 6 months after treatment, three female patients) does the source give for `CCc1ccc(CCOc2ccc(CC3SC(=O)NC3=O)cc2)nc1` (stereo not drawn) [pioglitazone] here?
The value was “increased in the thickness”.

What about the “change rate of hair thickness on treated side vs change rate in negative control” value ([1]; half side treatment, 6 months, FIG. 1 lower panel) of the same compound?
The value was “higher than the change rate obtained in the negative control”.

What about the “growing rate of hair (particularly anagen-stage hair)” value ([1]; modification of the scalp with pioglitazone) of the same compound?
Its value is “improvement of a growing rate of hair”.

What about the “expression of CD163” value [2] of the same compound?
Its value is “found to simultaneously increase”.

And the “expression of CD34” value [3]?
Its value is “found to increase”.

What about the “expression of CD68” value [4] of the same compound?
The value was “found to simultaneously increase”.

And the “expression of PPARγ” value [5]?
The value was “found to increase”.

What about the “hair thinning in a site having a high degree of aggravation” value [6] of the same compound?
Its value is “trends toward improvement were observed”.

What about the “progress of hair thinning” value ([6]; rating by 5 medical specialists, FIG. 7B) of the same compound?
The value was “the progress of hair thinning was at least stopped”.
